These results are taken from EPA's ToxValDB 9.5 (doi:10.2903/j.efsa.2009.299r).

Values after ≈ are worked out from the molar mass of the structure shown.

The subject of one data set is Rattus norvegicus. As to conditions: for LD50: acute, mortality.
For another data set, the system named is Canidae. As to conditions: chronic; duration: 2 years; oral; Dog Other; body weight.
A further data set has as its system Colinus virginianus. As to conditions: for LC50: diet.
Another data set concerns Mus musculus. Particulars: chronic; duration: 78 weeks; oral; diet; histopathology: neoplastic.
The next data set has as its system Bibionidae. As to conditions: chronic/long-term; duration: 28 days; other.
Another data set deals with Apis mellifera. Particulars: acute, mortality.
For the next data set, the system named is Pimephales promelas. Particulars: chronic/long-term; duration: 33 days; growth.
A further data set relates to Folsomia candida. Particulars: chronic/long-term; duration: 28 days.
The next data set concerns Oncorhynchus mykiss. Particulars: acute; duration: 96 hours; mortality.

With `O=C(O)c1ncc(C(F)(F)F)cc1S(=O)(=O)O` [3-Sulfo-5-trifluoromethyl pyridine-2-carboxylic acid], the LD50 with Rattus norvegicus (oral) was > 5000 mg/kg-day.
In general, NOAEL refers to the highest tested level that showed no adverse finding. Turning to `NC(=O)c1c(Cl)cccc1Cl` [2,6-Dichlorobenzamide], the LD50 with Rattus norvegicus (oral, F) is 500 mg/kg-day; in the data set on Rattus norvegicus (oral, M), 2000 mg/kg-day. Further, the no observed adverse effect level (NOAEL) in the data set on Rattus norvegicus (chronic, duration: 2 years, oral, histopathology: nonneoplastic) is 5.7 mg/kg-day; with Oryctolagus sp. (reproduction developmental, body weight), 30 mg/kg-day; in the data set on Canidae, 4.5 mg/kg-day. The compound further returned an LC50 in the data set with Colinus virginianus (acute, oral, mortality) of 1170 mg/kg-day.
With `O=C(O)c1ncc(C(F)(F)F)cc1Cl` [3-Chloro-5-(trifluoromethyl)pyridine-2-carboxylic acid], the LD50 in the data set with Rattus norvegicus (oral) came out at 5000 mg/kg-day.
For `CS(=O)c1cc(C(F)(F)F)cnc1C(=O)O` (centres undefined), in the data set on Rattus norvegicus (oral), the LD50 was > 5000 mg/kg-day.
For `O=C(NCc1ncc(C(F)(F)F)cc1Cl)c1c(Cl)cccc1Cl` [Fluopicolide], the LC50 was > 1.8 µg/mL in the data set with Daphnia magna (acute, duration: 48 hours, mortality); > 500 mg/kg in the data set with Tagia sp. (acute, duration: 14 days, mortality); 0.36 µg/mL (≈ 0.939 µM) with Oncorhynchus mykiss; > 1740 mg/kg-day in the data set on Colinus virginianus (acute, oral, mortality). The NOEC was 0.37 mg/L in the data set on Daphnia magna (chronic/long-term, duration: 21 days, reproduction); 49 mg/kg in the data set with Bibionidae; 0.155 mg/L in the data set with Pimephales promelas; 31.2 mg/kg in the data set on Folsomia candida; 62.5 mg/kg with Tagia sp. (chronic/long-term, duration: 28 days, growth); 88.9 mg/kg-day with Colinus virginianus (reproduction developmental). In addition, the LD50 in the data set with Rattus norvegicus (oral) was > 5000 mg/kg-day; in the data set with Apis mellifera (dermal), > 100 µg/piece; in the data set on Apis mellifera (oral, unspecified) it was > 241 µg/piece; with Colinus virginianus (acute, oral, mortality) it was > 2250 mg/kg-day. The NOAEL in the data set on Rattus norvegicus (chronic, duration: 2 years, histopathology: nonneoplastic) came to 8.4 mg/kg-day; with Rattus norvegicus (short-term, duration: 28 days, oral, body weight) it was 17.7 mg/kg-day; in the data set on Rattus norvegicus (subchronic, duration: 90 days, oral, organ weight), 7.4 mg/kg-day; with Mus musculus, 7.9 mg/kg-day; with Oryctolagus sp. (developmental, development), 20 mg/kg-day. The compound also gave an NOEL with Oryctolagus sp. (developmental, development) of 20 mg/kg-day.
